Test results published in patent US8772302B2, “GPR 119 agonists” (Cadila Healthcare Limited, priority 2009, dated 2014).
pEC50: −log10 of the molar value. Like-named read-outs stand apart in the source and are kept apart here.

How the values were obtained:
Sprague Dawley rats = experiment: Feed intake in Sprague Dawley rats; format: in vivo, rat; conditions: cumulative feed intake vs vehicle; for inhibition in vivo at 25 mg/kg: Rattus norvegicus, ip
Source text: In Vivo Efficacy Studies: Feed Intake in Sprague Dawley Rats:
Sprague Dawley rats of 6-8 week age are used for this experiment they are kept for acclimatization in reversed light/dark cycle for 15 days. Animals will have free access to a standard chow diet and water during acclimatization period. After 15 days reversed light/dark cycle acclimatization animals are trained for fasting induced feed intake for 5 days till they show consistent feed intake. Grouping was done based on the monitored feed intake during the training days. On treatment day each group of animals are dosed with test compound or vehicle by appropriate routes of administration (orally or intraperitoneally). Exactly 30 min. after treatment, measured amount of standard chow diet is provided and recorded as O-min feed offered. Then subsequently 2, 4, 6 and 24 hour after O-min, feed intake is measured and the cumulative feed intakes are calculated. The change in cumulative feed intake as compared to vehicle treated control at each time point is calculated for test compound.

[1] = molecular target: T1, recombinant human GPR 119 receptor (Homo sapiens, UniProt Q8TDV5); experiment: cAMP assay in stable cell line expressing recombinant human GPR 119 receptor; format: cell-based; conditions: intracellular cAMP
T1 construct: expressed in transfected cells
T1 sequence (Q8TDV5 1-335): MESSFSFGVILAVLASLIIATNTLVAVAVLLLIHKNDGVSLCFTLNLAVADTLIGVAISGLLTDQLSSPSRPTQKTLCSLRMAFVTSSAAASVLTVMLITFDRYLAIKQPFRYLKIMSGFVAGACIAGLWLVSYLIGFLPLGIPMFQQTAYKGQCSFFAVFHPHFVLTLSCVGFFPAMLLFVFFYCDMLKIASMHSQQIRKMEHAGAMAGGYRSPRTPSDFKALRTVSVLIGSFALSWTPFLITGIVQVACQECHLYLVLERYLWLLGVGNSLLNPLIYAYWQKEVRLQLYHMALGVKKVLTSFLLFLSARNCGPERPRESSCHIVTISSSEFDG
Source text: cAMP assay: A stable cell line expressing recombinant human GPR 119 receptor was established and used to investigate the efficacy of the compounds of the invention based on the intracellular levels of cyclic AMP (cAMP) using commercially available cAMP kits. Compounds of the invention produced a concentration dependent increase in cAMP level and EC50 values of representative compounds were provided in table 1.

C57/BL6 mice = experiment: Oral glucose tolerance test (OGTT) in C57/BL6 mice; format: in vivo, mouse; conditions: serum glucose AUC, single oral dose, glucose load 3 gm/kg
Description: Oral Glucose Tolerance Tests (OGTT) in C57/BL6 Mice:
C57/BL6 mice of 6-8 week age are used for this experiment. Animals are grouped based on non-fasting serum glucose levels and kept on fasting for overnight (day before OGTT). On the experiment day, […], 30 min post dosing animals are bled for basal glucose level estimation and at the same time glucose load (3 gm/kg) will be administered per orally. Blood is collected at time points corresponding to 20, 40, 60 and 120 min after glucose load administration. Serum is separated for determination of glucose levels and change in area under curve for glucose is calculated and provided in table 4 as % reduction in AUC.

Cc1c(Oc2ccc([C@H]3CO[S@@](=O)OC3)cc2)ncnc1OC1CCN(C(=O)OC(C)(C)C)CC1 [Example 15, cis-tert-butyl 4-((5-methyl-6-(4-(2-oxido-1,3,2-dioxathian-5-yl)phenoxy)pyrimidin-4-yl)oxy)piperidine-1-carboxylate]
inhibition in vivo at 25 mg/kg (Sprague Dawley rats; intraperitoneal, 25 mg/kg, 2 hour, read-out: % reduction in food in take, 2 hour): 47%
inhibition in vivo at 25 mg/kg (Sprague Dawley rats; intraperitoneal, 25 mg/kg, 4 hour, read-out: % reduction in food in take, 4 hour): 31%
inhibition in vivo at 25 mg/kg (Sprague Dawley rats; intraperitoneal, 25 mg/kg, 6 hour, read-out: % reduction in food in take, 6 hour): 28%
inhibition in vivo at 25 mg/kg (Sprague Dawley rats; intraperitoneal, 25 mg/kg, 24 hour, read-out: % reduction in food in take, 24 hour): 19%
pEC50 [1]: 8.38

CC(C)(C)OC(=O)N1CCC(c2nc(COc3ccc([C@H]4CO[S@@](=O)OC4)cc3)cs2)CC1 [Example 17, cis-tert-butyl 4-(4-((4-(2-oxido-1,3,2-dioxathian-5-yl)phenoxy)methyl)thiazol-2-yl)piperidine-1-carboxylate]
% reduction in AUC at 50 mg/kg (C57/BL6 mice): 34%
% reduction in food in take, 2 hour (Sprague Dawley rats; intraperitoneal, 25 mg/kg, 2 hour): 34%
% reduction in food in take, 4 hour (Sprague Dawley rats; intraperitoneal, 25 mg/kg, 4 hour): 34%
% reduction in food in take, 6 hour (Sprague Dawley rats; intraperitoneal, 25 mg/kg, 6 hour): 24%
% reduction in food in take, 24 hour (Sprague Dawley rats; intraperitoneal, 25 mg/kg, 24 hour): 13%

CC(C)(C)OC(=O)N1CCC(c2nc(COc3ccc(C4COS(=O)OC4)cc3)cs2)CC1 (stereo not drawn) [Example 18, trans-tert-butyl 4-(4-((4-(2-oxido-1,3,2-dioxathian-5-yl)phenoxy)methyl)thiazol-2-yl)piperidine-1-carboxylate]
% reduction in AUC at 50 mg/kg (C57/BL6 mice): 11%

Cc1c(OCCCC2CCN(C(=O)OC(C)(C)C)CC2)ncnc1Oc1ccc(C2COS(=O)OC2)cc1 (stereo not drawn) [Example 20, cis-tert-butyl 4-(3-((5-methyl-6-(4-(2-oxido-1,3,2-dioxathian-5-yl)phenoxy)pyrimidin-4-yl)oxy)propyl)piperidine-1-carboxylate]
% reduction in AUC at 50 mg/kg (C57/BL6 mice): 25%

CCOC(=O)N1CCC(Oc2ncnc(Oc3ccc(C[C@H]4CO[S@@](=O)OC4)cc3)c2C)CC1 [Example 39, cis-ethyl 4-((5-methyl-6-(4-((2-oxido-1,3,2-dioxathian-5-yl)methyl)phenoxy)pyrimidin-4-yl)oxy)piperidine-1-carboxylate]
pEC50 [1]: 7.03

CCc1cnc(N2CCC(Oc3ccc(C[C@H]4CO[S@@](=O)OC4)cc3)CC2)nc1 [Example 59, cis-5-(4-((1-(5-ethylpyrimidin-2-yl)piperidin-4-yl)oxy)benzyl)-1,3,2-dioxathiane 2-oxide]
% reduction in food in take, 2 hour (Sprague Dawley rats; oral, 50 mg/kg, 2 hour): 23%
% reduction in food in take, 4 hour (Sprague Dawley rats; oral, 50 mg/kg, 4 hour): 21%
% reduction in food in take, 6 hour (Sprague Dawley rats; oral, 50 mg/kg, 6 hour): 15%
% reduction in food in take, 24 hour (Sprague Dawley rats; oral, 50 mg/kg, 24 hour): 11%

CCc1cnc(N2CCC(Oc3ccc(C[C@H]4CO[S@](=O)OC4)cc3)CC2)nc1 [Example 60, trans-5-(4-((1-(5-ethylpyrimidin-2-yl)piperidin-4-yl)oxy)benzyl)-1,3,2-dioxathiane 2-oxide]
% reduction in food in take, 2 hour (Sprague Dawley rats; oral, 50 mg/kg, 2 hour): 39%
% reduction in food in take, 4 hour (Sprague Dawley rats; oral, 50 mg/kg, 4 hour): 31%
% reduction in food in take, 6 hour (Sprague Dawley rats; oral, 50 mg/kg, 6 hour): 24%
% reduction in food in take, 24 hour (Sprague Dawley rats; oral, 50 mg/kg, 24 hour): 5.3%

Cc1c(Oc2ccc(C[C@H]3CO[S@@](=O)OC3)cc2Cl)ncnc1OC1CCN(C(=O)OC(C)(C)C)CC1 [Example 63, cis-tert-butyl 4-((6-(2-chloro-4-((2-oxido-1,3,2-dioxathian-5-yl)methyl)phenoxy)-5-methylpyrimidin-4-yl)oxy)piperidine-1-carboxylate]
% reduction in AUC at 50 mg/kg (C57/BL6 mice): 31%
% reduction in food in take, 2 hour (Sprague Dawley rats; oral, 50 mg/kg, 2 hour): 44%
% reduction in food in take, 4 hour (Sprague Dawley rats; oral, 50 mg/kg, 4 hour): 41%
% reduction in food in take, 6 hour (Sprague Dawley rats; oral, 50 mg/kg, 6 hour): 25%
% reduction in food in take, 24 hour (Sprague Dawley rats; oral, 50 mg/kg, 24 hour): 15%
